Results reported in PubChem BioAssay (NCI).
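A five-concentration, 48-hour dose response in 96-well plates underlies each endpoint, interpolated linearly between surrounding concentrations. TGI: concentration producing complete growth inhibition.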

Tests used:
Experiment in all cases: inhibition of tumour cell growth, NCI panel, 48 h
[1] = test system: 786-0 renal
[2] = test system: A498 renal
[3] = test system: A549 NSCLC
[4] = test system: ACHN renal
[5] = test system: CAKI-1 renal
[6] = test system: CCRF-CEM leukemia
[7] = test system: DLD-1 colon
[8] = test system: DMS 273 small cell lung
[9] = test system: EKVX NSCLC
[10] = test system: HCC-2998 colon
[11] = test system: HCT-116 colon
[12] = test system: HCT-15 colon
[13] = test system: HL-60(TB) leukemia
[14] = test system: HOP-18 NSCLC
[15] = test system: HOP-62 NSCLC
[16] = test system: HOP-92 NSCLC
[17] = test system: HT29 colon
[18] = test system: IGROV1 ovarian
[19] = test system: K-562 leukemia
[20] = test system: KM12 colon
[21] = test system: KM20L2 colon
[22] = test system: LOX IMVI melanoma
[23] = test system: LXFL 529 NSCLC
[24] = test system: M14 melanoma
[25] = test system: M19-MEL melanoma
[26] = test system: MALME-3M melanoma
[27] = test system: MOLT-4 leukemia
[28] = test system: NCI-H226 lung
[29] = test system: NCI-H23 lung
[30] = test system: NCI-H460 lung
[31] = test system: OVCAR-4 ovarian
[32] = test system: OVCAR-5 ovarian
[33] = test system: OVCAR-8 ovarian
[34] = test system: RPMI-8226 leukemia
[35] = test system: RXF 393 renal
[36] = test system: SF-268 CNS
[37] = test system: SF-295 CNS
[38] = test system: SF-539 CNS
[39] = test system: SK-MEL-2 melanoma
[40] = test system: SK-MEL-28 melanoma
[41] = test system: SK-OV-3 ovarian
[42] = test system: SN12C renal
[43] = test system: SNB-19 CNS
[44] = test system: SNB-75 CNS
[45] = test system: SNB-78 CNS
[46] = test system: SR leukemia
[47] = test system: SW-620 colon
[48] = test system: TK-10 renal
[49] = test system: U251 CNS
[50] = test system: UACC-257 melanoma
[51] = test system: UACC-62 melanoma
[52] = test system: UO-31 renal
[53] = test system: XF 498 CNS
[54] = test system: BT-549 breast
[55] = test system: COLO 205 colon
[56] = test system: DU-145 prostate
[57] = test system: HS 578T breast
[58] = test system: MCF7 breast
[59] = test system: MDA-MB-231 breast
[60] = test system: MDA-MB-435
[61] = test system: MDA-N
[62] = test system: NCI-H522 lung
[63] = test system: NCI/ADR-RES ovarian
[64] = test system: OVCAR-3 ovarian
[65] = test system: PC-3 prostate
[66] = test system: SK-MEL-5 melanoma
[67] = test system: T-47D breast

Measured: TGI

CCCCn1/c(=N/C(=S)N(C)C)ss/c1=N\C(=S)N(C)C
> 100 µM: [1] | [2] | [3] | [4] | [5] | [6] | [7] | [8] | [9] | [10] | [11] | [12] | [13] | [14] | [15] | [16] | [17] | [18] | [19] | [20] | [21] | [22] | [23] | [24] | [25] | [26] | [27] | [28] | [29] | [30] | [31] | [32] | [33] | [34] | [35] | [36] | [37] | [38] | [39] | [40] | [41] | [42] | [43] | [44] | [45] | [46] | [47] | [48] | [49] | [50] | [51] | [52] | [53]

CC(=O)OCC1OC(n2c(=S)[nH]c(-c3ccccc3)c(C#N)c2=O)C(OC(C)=O)C(OC(C)=O)C1OC(C)=O (configuration not stated)
> 100 µM: [1] | [2] | [3] | [4] | [54] | [5] | [6] | [55] | [56] | [9] | [10] | [11] | [12] | [13] | [15] | [16] | [57] | [17] | [18] | [19] | [20] | [22] | [24] | [26] | [58] | [59] | [60] | [61] | [27] | [28] | [29] | [30] | [62] | [63] | [64] | [31] | [32] | [33] | [65] | [34] | [35] | [36] | [37] | [38] | [39] | [40] | [66] | [41] | [42] | [43] | [44] | [46] | [47] | [67] | [48] | [49] | [50] | [51] | [52]
